How the values were obtained:
[1] = Micelle to vesicle phase transition upon dilution: aspect; assay type: physicochemical; conditions: mixed micellar solution from sodium taurocholate and PBS57 (50 µg/mL)
Experimental: It is well established that phospholipids/bile salt mixed aggregates are going through a phase transition to form vesicles (liposomes) once diluted.
The same experiment was carried out on a mixed micellar solution obtained from sodium taurocholate and PBS57 (50 µg/mL).

[2] = Mixed micelles with bile salts: macroscopic aspect after reconstitution; assay type: physicochemical; conditions: for Aspect of the solution after reconstitution: PBS57 200 µg/mL; for Macroscopic observation right after reconstitution with 5% glucose: PBS57 50 µg/mL, ratio bile salt / PBS57 1/1
Experimental: The mixed-micelle solution manufacturing process requires co-solubilization of the lipid and the bile salt into a solvent (ethanol) that is then evaporated before the final aqueous medium is added to obtain the mixed-micellar solution. A 5% glucose solution was used as the aqueous reconstitution medium here.
Both sodium taurocholate and deoxycholate were tested. A first indication that the mixed aggregates are truly formed is the clear aspect of the solution.
PBS57 concentration in the above 2 experiments was 50 µg/mL. The ratio bile salt / PBS57 was here 1/1.
Solutions of PBS57 at 200 µg/mL associated (equimolar ratio) to sodium taurocholate or sodium deoxycholate were manufactured by the same protocol.

[3] = water

Row | Compound | Aspect upon dilution [1] | Aspect of the solution after reconstitution ([2]; equimolar ratio to sodium deoxycholate) | Aspect of the solution after reconstitution ([2]; equimolar ratio to sodium taurocholate) | Macroscopic observation right after reconstitution with 5% glucose ([2]; excipient Deoxycholate) | Macroscopic observation right after reconstitution with 5% glucose ([2]; excipient Taurocholate) | Thermodynamic aqueous solubility [3]
1 | CCCCCCCC/C=C\CCCCCCCCCCCCCC(=O)N[C@@H](CO[C@H]1O[C@H](CNC(C)=O)[C@H](O)[C@H](O)[C@H]1O)[C@H](O)[C@H](O)CCCCCCCCCCCCCC [PBS57] | slightly turbid suspension | perfectly clear | perfectly clear | Turbid with large aggregates, flocculation slowly turning to sedimentation | Slightly turbid | –
2 | α-galactosylceramide [α-GC] | – | – | – | – | – | below 5 µg/mL
